Test results published in the NIST ThermoML archive (doi:10.1021/acs.jced.7b00297).
± gives the expanded uncertainty stated by the source.

Legend:
[1] = 298.15 K; 101.33 kPa; Liquid; Vibrating tube method
[2] = mn = molality of the nth substance listed, in mol/kg; details: 84.5 kPa, Liquid; for speed of sound: Single path-length method; for mass density: Vibrating tube method

CCCCCCn1cc[n+](C)c1.[Cl-] [1-hexyl-3-methylimidazolium chloride]
Details | mass density [kg/m3]
[1] | 1042.86 ± 4.3

CCCCn1cc[n+](C)c1.[Cl-] [1-butyl-3-methylimidazolium chloride] + O
[2]
Details | mass density, 288.15 K [kg/m3] | mass density, 298.15 K [kg/m3] | mass density, 308.15 K [kg/m3] | mass density, 318.15 K [kg/m3] | speed of sound, 288.15 K [m/s] | speed of sound, 298.15 K [m/s] | speed of sound, 308.15 K [m/s] | speed of sound, 318.15 K [m/s]
m1 = 0.0344 | 999.577 ± 4 | 997.479 ± 4 | 994.434 ± 4 | 990.589 ± 4 | 1472 ± 1 | 1501.5 ± 1 | 1523.9 ± 1 | 1540.1 ± 1
m1 = 0.0526 | 999.828 ± 4 | 997.71 ± 4 | 994.648 ± 4 | 990.791 ± 4 | 1474.7 ± 1 | 1504 ± 1 | 1526.1 ± 1 | 1542 ± 1
m1 = 0.0926 | 1000.37 ± 4 | 998.209 ± 4 | 995.113 ± 4 | 991.228 ± 4 | 1480.8 ± 1 | 1509.3 ± 1 | 1530.8 ± 1 | 1546.1 ± 1
m1 = 0.1181 | 1000.72 ± 4 | 998.524 ± 4 | 995.403 ± 4 | 991.504 ± 4 | 1485 ± 1 | 1513.1 ± 1 | 1534 ± 1 | 1548.9 ± 1
m1 = 0.1806 | 1001.56 ± 4 | 999.3 ± 4 | 996.124 ± 4 | 992.177 ± 4 | 1493.8 ± 1 | 1520.7 ± 1 | 1540.7 ± 1 | 1554.8 ± 1
m1 = 0.2371 | 1002.33 ± 4 | 999.998 ± 4 | 996.773 ± 4 | 992.785 ± 4 | 1502.2 ± 1 | 1528 ± 1 | 1547.1 ± 1 | 1560.5 ± 1
m1 = 0.479 | 1005.59 ± 4 | 1002.98 ± 4 | 999.537 ± 4 | 995.37 ± 4 | 1535.7 ± 1.1 | 1557.1 ± 1.1 | 1572.5 ± 1.1 | 1582.7 ± 1.1
m1 = 0.7374 | 1009.02 ± 4 | 1006.11 ± 4 | 1002.43 ± 4 | 998.079 ± 4 | 1568.8 ± 1.1 | 1586 ± 1.1 | 1597.6 ± 1.1 | 1604.5 ± 1.1

CCCCn1cc[n+](C)c1.O=S(=O)([O-])C(F)(F)F [1-butyl-3-methylimidazolium trifluoromethanesulfonate]
Details | mass density [kg/m3]
[1] | 1297.84 ± 5.4
